Data as given in patent US4977273A, “Fluorine-containing 2-nitroimidazole derivatives” (Kyoto University of Honmachi, priority 1988, dated 1990).

How the values were obtained:
in vivo = conditions: mouse, female ICR mice of 5 weeks
EMT-6 tumor cells = assay: Radiosensitization effect on tumor transplanted in animal (ER in vivo); design: species or system male Bal/c mouse; conditions: EMT-6 tumor in mouse, 100 mg/kg intraperitoneal, X-ray after 40 minutes at 450 rad/min. for 5 minutes
Method: Radiosensitization effect on tumor transplanted in animal (ER in vivo)
To both thighs of male Bal/c mouse (8 weeks; 4 mice in a group), 10^5 of EMT-6 tumor cells were subcutaneously inoculated. After the diameter of the tumor reached about 1 cm, a solution of a compound to be examined in saline in an amount of 100 mg of the compound per kg was intraperitonealy administered. After 40 minutes, X-ray was irradiated at 450 rad/min. for 5 minutes and then the mouse was sacrificed.
After the whol body of the mouse was sterilized with 70% ethanol, the tumor was taken out. The tissue was homogenized and then digested by stirring for 50 minutes at 37° C. with adding 22 ml of trypsin. The number of cells in the supernatant was counted. A predetermined amount of the cells was introduced in a plastic plate having a diameter of about 5 cm. To the plate, 5 ml of medium was added and cultured in a CO2 incubator. The plate containing the irradiated cells was removed from the incubator after 9 days, while a comparison dish containing unirradiated cells was incubated for 10 days. The cells were fixed by methanol and strained by Giemsa stain. Then, the number of colonies formed were counted.
The survival rate was calculated with using the data of the unirradiated cells as control.

[1] = tested on: Chinese hamster V-79 cells; assay: Radiosensitization effect on cells (ER in vitro); type: cell-based; conditions: 1.0 mM, 60 min at 37° C., nitrogen (hypoxic), X-ray 1.6 Gy/min
Method: Radiosensitization effect on cells (ER in vitro)
A solution of a predetermined concentration (1.0 mM) of a compound to be examined in a medium was added to the dish. After standing for 60 minutes at 37° C., the dish was placed in a closed vessel at room temperature.
After the irradiation, the cells were washed with phosphate buffer and digested with trypsin into single cells. Then, a predetermined amount of the cells was introduced into 5 ml of a culture medium in a culture dish and cultured for 7 days at 37° C. After staining and washing with water, the number of colonies formed was counted.
For comparison, the irradiation was carried out in the nitrogen atmosphere or in the air after adding the medium without the test compound.

[2] = administered in human beings; cited from earlier work
hypoxic cells = conditions: compared with no Misonidazole; cited from earlier work
[3] = hardly administered in an effective amount; cited from earlier work

SMILES | LD50 (in vivo) [mg/kg] | ER in vivo (EMT-6 tumor cells) | ER in vitro [1] | sensitizing effect in human beings [2] | hypoxic cell sensitizing effectiveness (hypoxic cells) | neurotoxicity [3]
O=[N+]([O-])c1nccn1CC(F)COCC(O)CO (stereo not drawn) [(1), 1-(2'-fluoro-4'-oxa-6',7'-dihydroxyheptyl)-2-nitroimidazole] | 2700 | 1.38 | 1.49 |  |  | 
O=[N+]([O-])c1nccn1CC(F)COCCO (stereo not drawn) [(11), 1-(2'-fluoro-4'-oxa-6'-hydroxyhexcyl)-2-nitroimidazole] |  | 1.52 | 1.66 |  |  | 
NC(=O)CCNC(=O)C(F)(F)Cn1ccnc1[N+](=O)[O-] [(22), 3-[3'-(2"-nitroimidazolyl)-2',2'-difluoropropionylamino]propionic acid amide] | 2800 | 1.58 | 1.46 |  |  | 
NC(=O)C(F)(F)CNC(=O)C(F)(F)Cn1ccnc1[N+](=O)[O-] [(24), 3-[3'-(2"-nitroimidazolyl)-2',2'-difluoropropionylamino]-2,2-difluoropropionic acid amide] | 2600 | 1.41 | 1.76 |  |  | 
NC(=O)C(F)(F)Cn1ccnc1[N+](=O)[O-] [(28), 3-(2'-nitroimidazolyl)-2,2-difluoropropionic acid amide] | 1100 | 1.32 | 1.48 |  |  | 
O=C(COCC(F)(F)Cn1ccnc1[N+](=O)[O-])NCCO [(43), 2[3'-(2"-nitroimidazolyl)-2',2'-difluoropropoxy]acetic acid hydroxyethylamide] | > 2000 | 1.38 | 1.54 |  |  | 
O=C(COCC(F)(F)Cn1ccnc1[N+](=O)[O-])NO [(44)] |  | 1.48 | 1.68 |  |  | 
O=C(NCCO)C(F)(F)COCC(F)(F)Cn1ccnc1[N+](=O)[O-] [(45), 3-[3'-(2"-nitroimidazolyl)-2',2'-difluoropropoxy]-2,2-difluoropropionic acid hydroxyethylamide] | > 1600 | 1.40 | 1.63 |  |  | 
NC(=O)C(F)(F)COCC(F)(F)Cn1ccnc1[N+](=O)[O-] [(46), 3-[3'-(2"-nitroimidazolyl)-2',2'-difluoropropoxy]2,2-difluoropropionylamide] |  | 1.45 | 1.58 |  |  | 
O=C(CCNC(=O)C(F)(F)Cn1ccnc1[N+](=O)[O-])NCCO [(47), 3-[3'-(2"-nitroimidazolyl)-2',2'-difluoropropionamido]propionic acid hydroxyethylamide] | > 2000 | 1.38 | 1.43 |  |  | 
NC(=O)CNC(=O)C(F)(F)Cn1ccnc1[N+](=O)[O-] [(48)] | 2200 | 1.49 | 1.61 |  |  | 
COC(=O)OCCNC(=O)C(F)(F)Cn1ccnc1[N+](=O)[O-] [(51), methyl 3-(2'-nitroimidazolyl)-2,2-difluoropropionamidoethoxyformate] | > 3000 |  |  |  |  | 
COCC(O)Cn1ccnc1[N+](=O)[O-] (stereo not drawn) [Comparative (1), 1-(2-Nitro-1-imidazolyl)-3-methoxy-2-propanol] |  | 1.43 | 1.50 | No sensitizing effect was confirmed | about twice as effective as when no Misonidazole is used | strong neurotoxicity
